In PubChem BioAssay AID651563 (Sanford-Burnham Center for Chemical Genomics, 2012):
The source made the active and inactive calls.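 The calls were made as follows: active = compounds whose IC50 is 20 micromolar or lower, counted as confirmed SKN-1 reporter blockers; inactive = the rest.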

Each compound was assayed on C. elegans VP596 Pgst-4::GFP/RFP ratio, acrylamide, 24 h (assay: C. elegans gst-4 reporter suppression, concentration series – whole organism, GFP/RFP fluorescence ratio, set 2, strain VP596, SKN-1 inhibitor project, dose response (AID 651563);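 also: red signal is driven by the dop-3 promoter and serves as the normalizer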).

Row | Structure (SMILES) | IC50
1 | C=CCSc1ncc(-c2ccccc2)cn1 | 27.2 µM (inactive)
2 | CC1=NOC(=O)/C1=C/c1ccc(-c2ccc(Cl)cc2)o1 | > 100 µM (inactive)
3 | Fc1ccc(-c2cnc(-c3cccs3)o2)cc1 | 27.5 µM (inactive)
4 | O=C(Nc1ccc(CN2CCOCC2)cc1)c1cc2ccccc2o1 | 17.5 µM
5 | Fc1ccc(-n2nnc(-c3nccs3)n2)cc1 | 24.4 µM (inactive)
6 | Cc1ccccc1-c1noc(-c2cccs2)n1 | 9.31 µM
7 | O=C(/C=C/Nc1ccccc1F)c1cccs1 | 27.9 µM (inactive)
8 | O=[N+]([O-])c1ccc(Nc2ccccc2)c2nonc12 | 49.6 µM (inactive)
9 | O=C(C=Cc1cccs1)c1ccc(Cl)s1 | 17.7 µM
10 | CC(C)c1ccc(C(=O)Nc2ccc(CN3CCOCC3)cc2)cc1 | 4.79 µM
11 | Cc1ccc(Nc2nc(-c3cccs3)cs2)nc1 | 30.2 µM (inactive)
12 | Brc1ccc(CSc2nnc(-c3cccnc3)o2)cc1 | 29.1 µM (inactive)
13 | O=[N+]([O-])c1ccc(Nc2ccccc2)cc1 | 12.2 µM
14 | Cc1c(N2C(=O)/C(=C\c3ccc(N(C)C)cc3)N(C)C2=S)c(=O)n(-c2ccccc2)n1C | 16.9 µM
15 | Fc1ccccc1-c1nc(-c2ccncc2)no1 | 38.6 µM (inactive)
16 | Clc1ccc(-c2nnc(SCc3ccon3)o2)c(Cl)c1 | > 100 µM (inactive)
17 | Fc1ccccc1OCCSc1nc2ccccc2o1 | 60.7 µM (inactive)
18 | Clc1ccc(OCCCc2nc(-c3ccncc3)no2)c(Cl)c1 | 29.5 µM (inactive)
19 | CCc1ccc(C(=O)Nc2ccc3nc(C)ccc3c2)cc1 | 14.2 µM
20 | Brc1ccc(-c2nnc(-c3ccco3)o2)cc1 | 10.8 µM
21 | CN(C)CC(O)c1ccc(C=Cc2ccc(Cl)cc2)cc1 (stereo unspecified) | 18.4 µM

Row | Structure (SMILES) | IC50
22 | O=C(Nc1ccc(Cl)c(C(F)(F)F)c1)c1ccco1 | 64.4 µM (inactive)
23 | O=C(/C=C/c1cccs1)c1ccc(Br)cc1 | 20.8 µM (inactive)
24 | CC(C)c1ccc(-c2nc3ccccc3s2)cc1 | > 100 µM (inactive)
25 | CC/C(=C\c1ccc(Cl)cc1)c1ccncc1 | 28.2 µM (inactive)
26 | Fc1ccc(CSc2ncnc3ccccc23)cc1 | 24.2 µM (inactive)
27 | O=C(/C=C/c1ccccc1)Nc1ccc(CN2CCOCC2)cc1 | 19.3 µM
28 | CCN(CC)c1ccc(/C=C2\C(=O)c3ccc(C(=O)O)cc3C2=O)cc1 | 12.2 µM
29 | O=C(Nc1ccc(OC(F)F)c(Cl)c1)c1cccc(OC(F)F)c1 | > 100 µM (inactive)
30 | O=[N+]([O-])c1cccc(-c2c(-c3ccccc3)ncc3cc(F)ccc23)c1 | > 100 µM (inactive)
31 | c1ccc(SCc2cc(-c3ccccc3)no2)cc1 | 12.8 µM
32 | Clc1ccc(-c2nc3cc(CN4CCCCC4)ccc3o2)cc1 | 87.7 µM (inactive)
33 | Brc1cccc(OCCSc2ncccn2)c1 | > 100 µM (inactive)
34 | Cc1oc(-c2ccc(-c3ccccc3)cc2)nc1CN(C)C1CCOC1 (stereo unspecified) | 20.6 µM (inactive)
35 | O=C1c2cc(Br)ccc2OC2C=CC=CC12 (stereo unspecified) | > 100 µM (inactive)
36 | O=C(CC(O)(C(F)(F)F)C(F)(F)F)Nc1ccc(Cl)c(Cl)c1 | 27.9 µM (inactive)
37 | c1ccc(-c2nc3cc4ccccc4cc3[nH]2)nc1 | 16.1 µM
38 | O=[N+]([O-])c1ccc2cn(-c3ccccc3)nc2c1 | 2.81 µM
39 | CC(C)(C)N=C1NN=C(c2ccc(Cl)cc2)CS1 | 25.9 µM (inactive)
40 | Cc1ccc(-c2noc(-c3cccs3)n2)cc1 | 12.4 µM
41 | FCCCOc1ccc(-c2nccc(-c3ccccn3)n2)cc1 | 25.6 µM (inactive)
42 | Fc1ccc(-n2nnc(-c3cccnc3Cl)n2)cc1 | 8.82 µM

Row | Structure (SMILES) | IC50
43 | COc1cc(CNC(C)c2ccccc2)cc(Br)c1OCc1ccc(F)cc1 (stereo unspecified) | 9.1 µM
44 | c1ccc(-c2nc(-c3ccncc3)no2)cc1 | 24.7 µM (inactive)
45 | Clc1ccc(N2CCN(c3ccnc(Cl)n3)CC2)cc1 | 17.7 µM
46 | CCc1nc2c(OCc3ccc(C(F)(F)F)cc3)cccn2c1N(C)C(=O)c1ccncc1 | 3.57 µM
47 | C(=C\c1nnc(-c2cccs2)o1)/c1ccccc1 | 15.9 µM
48 | Cc1ccc(-c2nc(-c3ccncc3)no2)c(C)c1 | > 100 µM (inactive)
49 | COc1cc(CNC2CCCC2)cc(Cl)c1OCc1ccc(F)cc1 | 11.8 µM
50 | Clc1ccc(-c2nnc(-c3ccccc3)o2)cn1 | > 100 µM (inactive)
51 | O=C(/C=C/c1ccco1)Nc1nc(-c2ccccc2)cs1 | 42.6 µM (inactive)
52 | Brc1ccc2nc(N3CCCC3)sc2c1 | 25.8 µM (inactive)
53 | Cc1ccc(CSc2nnc(-c3ccco3)o2)cc1 | 23.8 µM (inactive)
54 | Cc1cc(OCc2cccc(Cl)c2)c(C)cc1CN1CCOCC1 | 15.2 µM
55 | c1ccc(N2CCN(c3cnc4ccccc4n3)CC2)cc1 | > 100 µM (inactive)
56 | Fc1ccc(Nc2cccc3nccnc23)cc1 | 47.2 µM (inactive)
57 | COc1ccc(C(=O)Nc2nc(-c3cccs3)cs2)cc1 | 24.6 µM (inactive)
58 | Clc1ccc(C#Cc2cccnc2)cc1 | 19.5 µM
59 | c1ccc(-c2ccc(-n3ccnc3)cc2)cc1 | 10.6 µM
60 | Fc1ccc(-n2nnc(-c3cccnc3)n2)cc1 | 24.8 µM (inactive)
61 | Nc1ccc2c(Cl)cc(Cl)cc2c1 | 28.5 µM (inactive)
